Data as given in ChEMBL document CHEMBL3045089, “Synthesis, spectral studies, antimicrobial and insect antifeedant activities of some substituted styryl 4-fluorophenyl ketones” (2011).
Calls of active or inactive are those of the source. No cut-off for these calls is given here.

What was measured:
[1] = system: Enterococcus faecalis; assay: Antibacterial activity against Enterococcus faecalis assessed as inhibition zone at 250 ug/ml measured after 24 to 45 hrs by disk diffusion method; format: functional
[2] = system: Proteus vulgaris; assay: Antibacterial activity against Proteus vulgaris assessed as inhibition zone at 250 ug/ml measured after 24 to 45 hrs by disk diffusion method; format: functional
[3] = system: Aspergillus niger; assay: Antifungal activity against Aspergillus niger assessed as inhibition zone at 50 ug/ml measured after 72 hrs by drug dilution method; format: functional, organism-based
[4] = system: Escherichia coli; assay: Antibacterial activity against Escherichia coli assessed as inhibition zone at 250 ug/ml measured after 24 to 45 hrs by disk diffusion method; format: functional
[5] = system: Klebsiella; assay: Antibacterial activity against Klebsiella species assessed as inhibition zone at 250 ug/ml measured after 24 to 45 hrs by disk diffusion method; format: functional
[6] = system: Pseudomonas; assay: Antibacterial activity against Pseudomonas assessed as inhibition zone at 250 ug/ml measured after 24 to 45 hrs by disk diffusion method; format: functional
[7] = system: Staphylococcus aureus; assay: Antibacterial activity against Staphylococcus aureus assessed as inhibition zone at 250 ug/ml measured after 24 to 45 hrs by disk diffusion method; format: functional
[8] = system: Candida albicans; assay: Antifungal activity against Candida albicans assessed as inhibition zone at 250 ug/ml measured after 72 hrs by disk diffusion method; format: functional, organism-based
[9] = system: Penicillium; assay: Antifungal activity against Penicillium assessed as inhibition zone at 50 ug/ml measured after 72 hrs by drug dilution method; format: functional, organism-based
[10] = system: Achaea janata; assay: Antifeedant activity against fourth instar larvae of Achaea janata L. on Riclmus cammunls leaves assessed as number of leaf discs consumed in 24 hrs at 200 ppm at 26 +/- 1 degC; format: functional
[11] = system: Achaea janata; assay: Antifeedant activity against fourth instar larvae of Achaea janata L. on Riclmus cammunls leaves assessed as number of leaf discs consumed in 24 hrs at 50 ppm at 26 +/- 1 degC; format: functional
[12] = system: Achaea janata; assay: Antifeedant activity against fourth instar larvae of Achaea janata L. on Riclmus cammunls leaves assessed as number of leaf discs consumed in 24 hrs at 150 ppm at 26 +/- 1 degC; format: functional
[13] = system: Achaea janata; assay: Antifeedant activity against fourth instar larvae of Achaea janata L. on Riclmus cammunls leaves assessed as number of leaf discs consumed in 24 hrs at 100 ppm at 26 +/- 1 degC; format: functional

## O=C(/C=C/c1ccc(Br)cc1)c1ccc(F)cc1
[1]
  Activity: 20 mm
[2]
  Activity: 13 mm
[3]
  inhibition: Active
[4]
  Activity: 20 mm
[5]
  Activity: 20 mm
[6]
  Activity: 13 mm
[7]
  Activity: 20 mm
[8]
  inhibition: Active
[9]
  inhibition: Active
[10]
  Activity: 0.5

## O=C(/C=C/c1ccccc1)c1ccc(F)cc1
[1]
  Activity: inactive
[2]
  Activity: 8 mm
[3]
  Activity: inactive
[4]
  Activity: 8 mm
[5]
  Activity: 8 mm
[6]
  Activity: 8 mm
[7]
  Activity: 13 mm
[8]
  Activity: inactive
[9]
  Activity: inactive
[10]
  Activity: 8

## O=C(/C=C/c1ccccc1[N+](=O)[O-])c1ccc(F)cc1
[1]
  Activity: inactive
[2]
  Activity: 13 mm
[3]
  Activity: inactive
[4]
  Activity: 13 mm
[5]
  Activity: 13 mm
[6]
  Activity: 13 mm
[7]
  Activity: 13 mm
[8]
  Activity: inactive
[9]
  Activity: inactive
[10]
  Activity: 12

## O=C(/C=C/c1cccc(Cl)c1)c1ccc(F)cc1
[1]
  Activity: inactive
[2]
  Activity: 13 mm
[4]
  Activity: 13 mm
[5]
  Activity: 13 mm
[6]
  Activity: 13 mm
[7]
  Activity: 13 mm
[8]
  Activity: inactive
[10]
  Activity: 0.4

## O=C(/C=C/c1cccc([N+](=O)[O-])c1)c1ccc(F)cc1
[1]
  Activity: inactive
[2]
  Activity: 13 mm
[3]
  Activity: inactive
[4]
  Activity: 13 mm
[5]
  Activity: 13 mm
[6]
  Activity: 13 mm
[7]
  Activity: 13 mm
[8]
  Activity: inactive
[9]
  Activity: inactive
[10]
  Activity: 10

## O=C(/C=C/c1ccc(Cl)cc1)c1ccc(F)cc1
[11]
  Activity: 0.1
[1]
  Activity: inactive
[2]
  Activity: 13 mm
[12]
  Activity: 0
[3]
  Activity: inactive
[4]
  Activity: 13 mm
[5]
  Activity: 13 mm
[6]
  Activity: 13 mm
[13]
  Activity: 0.05
[7]
  Activity: 13 mm
[9]
  Activity: inactive
[10]
  Activity: 0.1

## CN(C)c1ccc(/C=C/C(=O)c2ccc(F)cc2)cc1
[1]
  Activity: inactive
[2]
  Activity: 13 mm
[3]
  inhibition: Active
[4]
  Activity: 20 mm
[5]
  Activity: 13 mm
[6]
  Activity: 20 mm
[7]
  Activity: 20 mm
[9]
  inhibition: Active
[10]
  Activity: 9

## Cc1ccc(/C=C/C(=O)c2ccc(F)cc2)cc1
[1]
  Activity: inactive
[2]
  Activity: 8 mm
[3]
  Activity: inactive
[4]
  Activity: 8 mm
[5]
  Activity: 8 mm
[6]
  Activity: 8 mm
[7]
  Activity: 13 mm
[10]
  Activity: 9

## COc1ccc(/C=C/C(=O)c2ccc(F)cc2)cc1
[1]
  Activity: 20 mm
[2]
  Activity: 13 mm
[4]
  Activity: 13 mm
[5]
  Activity: 13 mm
[6]
  Activity: 13 mm
[7]
  Activity: 13 mm
[8]
  inhibition: Active
[9]
  inhibition: Active
[10]
  Activity: 9
